A word on the GI50: it is the concentration giving 50% growth inhibition. The TGI is the concentration at which net growth stops.

Calls of active or inactive are those of the source. No cut-off for these calls is given here.

For one test, the system named is CCRF-CEM. The experiment in a line: Antiproliferative activity against human CCRF-CEM cells assessed as growth inhibition measured after 48 hrs by NCI protocol based SRB assay. The format is functional. For orientation: The SRB assay estimates cell density from bound dye.
The test system of another test is HOP-62. The experiment in a line: Antiproliferative activity against human HOP-62 cells assessed as growth inhibition measured after 48 hrs by NCI protocol based SRB assay. In kind it is functional.
A further test concerns A549. In words: Antiproliferative activity against human A549 cells assessed as growth inhibition measured after 48 hrs by NCI protocol based SRB assay. In kind it is functional.
The next test deals with NCI-H460. In words: Antiproliferative activity against human NCI-H460 cells assessed as growth inhibition measured after 48 hrs by NCI protocol based SRB assay. The format is functional.
For another test, the system named is HCT-116. The experiment in a line: Antiproliferative activity against human HCT-116 cells assessed as growth inhibition measured after 48 hrs by NCI protocol based SRB assay. The format is functional.
Another test relates to HCT-15. In words: Antiproliferative activity against human HCT-15 cells assessed as growth inhibition measured after 48 hrs by NCI protocol based SRB assay. The format is functional.
Another test deals with SNB-75. The experiment in a line: Antiproliferative activity against human SNB-75 cells assessed as growth inhibition measured after 48 hrs by NCI protocol based SRB assay. In kind it is functional.
Test [1] concerns SK-MEL-2. In words: Antiproliferative activity against human SK-MEL-2 cells assessed as growth inhibition measured after 48 hrs by NCI protocol based SRB assay. The format is functional.
The next test deals with UACC-257. The experiment in a line: Antiproliferative activity against human UACC-257 cells assessed as growth inhibition measured after 48 hrs by NCI protocol based SRB assay. In kind it is functional.
The next test has as its system OVCAR-3. The experiment in a line: Antiproliferative activity against human OVCAR-3 cells assessed as growth inhibition measured after 48 hrs by NCI protocol based SRB assay. In kind it is functional.
Test [2] has as its system OVCAR-8. In words: Antiproliferative activity against human OVCAR-8 cells assessed as growth inhibition measured after 48 hrs by NCI protocol based SRB assay. The format is functional.
In the next test the test system is ACHN. In words: Antiproliferative activity against human ACHN cells assessed as growth inhibition measured after 48 hrs by NCI protocol based SRB assay. The format is functional.
Test [3] relates to A498. In words: Antiproliferative activity against human A498 cells assessed as growth inhibition measured after 48 hrs by NCI protocol based SRB assay. The format is functional.
For test [4], the system named is RXF 393. In words: Antiproliferative activity against human RXF 393 cells assessed as growth inhibition measured after 48 hrs by NCI protocol based SRB assay. In kind it is functional.
For a further test, the system named is TK-10. The experiment in a line: Antiproliferative activity against human TK-10 cells assessed as growth inhibition measured after 48 hrs by NCI protocol based SRB assay. In kind it is functional.
A further test concerns PC-3. The experiment in a line: Antiproliferative activity against human PC-3 cells assessed as growth inhibition measured after 48 hrs by NCI protocol based SRB assay. The format is functional.
Another test deals with DU-145. The experiment in a line: Antiproliferative activity against human DU-145 cells assessed as growth inhibition measured after 48 hrs by NCI protocol based SRB assay. The format is functional.
For the next test, the system named is MDA-MB-231. In words: Antiproliferative activity against human MDA-MB-231 cells assessed as growth inhibition measured after 48 hrs by NCI protocol based SRB assay. In kind it is functional.
The test system of test [5] is Hs-578T. The experiment in a line: Antiproliferative activity against human Hs-578T cells assessed as growth inhibition measured after 48 hrs by NCI protocol based SRB assay. In kind it is functional.
Another test has as its system MDA-MB-468. In words: Antiproliferative activity against human MDA-MB-468 cells assessed as growth inhibition measured after 48 hrs by NCI protocol based SRB assay. In kind it is functional.
Another test deals with MOLT-4. The experiment in a line: Cytostatic activity in human MOLT-4 cells assessed as tumor growth inhibition measured after 48 hrs by NCI protocol based SRB assay. The format is functional.
The subject of another test is HL-60(TB). In words: Cytostatic activity in human HL-60(TB) cells assessed as tumor growth inhibition measured after 48 hrs by NCI protocol based SRB assay. The format is functional.
A further test concerns K562. In words: Cytostatic activity in human K562 cells assessed as tumor growth inhibition measured after 48 hrs by NCI protocol based SRB assay. In kind it is functional.
The next test relates to NCI-H226. In words: Cytostatic activity in human NCI-H226 cells assessed as tumor growth inhibition measured after 48 hrs by NCI protocol based SRB assay. In kind it is functional.
The next test concerns HT-29. The experiment in a line: Cytostatic activity in human HT-29 cells assessed as tumor growth inhibition measured after 48 hrs by NCI protocol based SRB assay. In kind it is functional.
A further test has as its system M14. In words: Cytostatic activity in human M14 cells assessed as tumor growth inhibition measured after 48 hrs by NCI protocol based SRB assay. In kind it is functional.
The test system of the next test is Malme-3M. The experiment in a line: Cytostatic activity in human Malme-3M cells assessed as tumor growth inhibition measured after 48 hrs by NCI protocol based SRB assay. In kind it is functional.
Test [6] relates to SK-MEL-2. In words: Cytostatic activity in human SK-MEL-2 cells assessed as tumor growth inhibition measured after 48 hrs by NCI protocol based SRB assay. The format is functional.
Test [7] deals with OVCAR-8. In words: Cytostatic activity in human OVCAR-8 cells assessed as tumor growth inhibition measured after 48 hrs by NCI protocol based SRB assay. In kind it is functional.
Another test relates to SK-OV-3. The experiment in a line: Cytostatic activity in human SK-OV-3 cells assessed as tumor growth inhibition measured after 48 hrs by NCI protocol based SRB assay. In kind it is functional.
In test [8] the test system is A498. In words: Cytostatic activity in human A498 cells assessed as tumor growth inhibition measured after 48 hrs by NCI protocol based SRB assay. The format is functional.
Test [9] has as its system RXF 393. The experiment in a line: Cytostatic activity in human RXF 393 cells assessed as tumor growth inhibition measured after 48 hrs by NCI protocol based SRB assay. The format is functional.
The subject of a further test is MCF7. In words: Cytostatic activity in human MCF7 cells assessed as tumor growth inhibition measured after 48 hrs by NCI protocol based SRB assay. The format is functional.
The subject of test [10] is Hs-578T. The experiment in a line: Cytostatic activity in human Hs-578T cells assessed as tumor growth inhibition measured after 48 hrs by NCI protocol based SRB assay. The format is functional.
The test system of a further test is SR. The experiment in a line: Antiproliferative activity against human SR cells assessed as growth inhibition at 10 uM measured after 48 hrs by NCI protocol based SRB assay relative to control. In kind it is functional. Conditions: read-out: GI.
In test [11] the test system is RS4-11. In words: Induction of cell cycle arrest in human RS4-11 cells assessed as accumulation of cells in G2/M phase measured after 48 hrs by PI staining based flow cytometry analysis. The conditions noted are these: dose 1.25-10 µM, DDE = dose-dependent effect. In kind it is functional. On the technique in general: Flow cytometry measures light scatter and fluorescence of single cells or particles in a stream.

The test system of test [12] is RS4-11. In words: Induction of cell cycle arrest in human RS4-11 cells assessed as accumulation of cells in G2/M phase at 1.25 to 10 uM measured after 72 hrs by PI staining based flow cytometry analysis. The format is functional. Conditions: dose 1.25-10 µM.
Test [13] has as its system RS4-11. The experiment in a line: Downregulation of HOXA9 protein expression in human RS4-11 cells at 5 to 20 uM measured after 24 hrs by Western blot analysis. The format is functional, cell-based. Conditions: dose 5-20 µM. (In general: Immunoblotting shows a protein as a band on a membrane.)
Where [14] appears, read: read-out: LC50 (the source's name).

Turning to `N#Cc1c(-c2ccccc2)nc2c(c(-c3ccccc3)nn2-c2ccccc2)c1-c1ccc(O)cc1`, the GI50 in the test with CCRF-CEM was found to be 3.13 µM; in the test on HOP-62 it was 2.12 µM; in the test on A549 it was 2.57 µM; in the test with NCI-H460, 1.73 µM; in the test with HCT-116, 2.63 µM; in the test on HCT-15, 1.62 µM. The concentration for 50% growth inhibition (GI50) was determined as 2.03 µM in the test on SNB-75; 2.39 µM with SK-MEL-2 [1]; 3.13 µM with UACC-257; 2 µM with OVCAR-3; 3.14 µM in the test with OVCAR-8 [2]; 2.24 µM with ACHN. Moreover, the concentration for 50% growth inhibition (GI50) with A498 [3] was found to be 1.66 µM; with RXF 393 [4], 1.03 µM; in the test with TK-10, 2.89 µM; in the test on PC-3, 1.82 µM; in the test with DU-145, 2.62 µM; in the test on MDA-MB-231, 1.7 µM. Also, the 50% growth inhibitory concentration (GI50) in the test on Hs-578T [5] amounted to 1.41 µM; in the test on MDA-MB-468, 2.41 µM. Further, the CC50 in the test with CCRF-CEM (setting [14]) was over 100 µM; with HOP-62 (setting [14]), 9.53 µM; in the test on A549 (setting [14]), 84.2 µM; with NCI-H460 (setting [14]), 6.13 µM; in the test on HCT-116 (setting [14]), 83.4 µM; in the test with HCT-15 (setting [14]), 8.9 µM. In addition, the CC50 in the test on SNB-75 (setting [14]) is 28.3 µM; in the test on SK-MEL-2 [1] (setting [14]) it was 41.7 µM; with UACC-257 (setting [14]) it was 6.55 µM; with OVCAR-3 (setting [14]) it was 9.91 µM; in the test with OVCAR-8 [2] (setting [14]), over 100 µM; with ACHN (setting [14]), 20.5 µM. Also, the CC50 in the test on A498 [3] (setting [14]) is 5.69 µM; in the test on RXF 393 [4] (setting [14]), 5.37 µM; in the test on TK-10 (setting [14]) it was over 100 µM; in the test on PC-3 (setting [14]), 7.86 µM; with DU-145 (setting [14]), 37.7 µM; in the test on MDA-MB-231 (setting [14]), 6.44 µM. The results for the CC50 with Hs-578T [5] (setting [14]) and in the test on MDA-MB-468 (setting [14]) were 43.8 µM and 18.5 µM, respectively. The concentration for total growth inhibition (TGI) is 7.86 µM with MOLT-4; 23.7 µM with HL-60(TB); over 100 µM with K562; 4.51 µM with NCI-H226; 6.44 µM with HT-29; 5.48 µM in the test with M14. Further, the TGI was 3.83 µM in the test on Malme-3M; 5.65 µM with SK-MEL-2 [6]; 11.7 µM in the test with OVCAR-8 [7]; 8.48 µM in the test with SK-OV-3; 3.07 µM with A498 [8]; 2.35 µM with RXF 393 [9]. In addition, the values for the TGI with MCF7 and in the test on Hs-578T [10] were 4.76 µM and 4.46 µM, respectively.

Take `N#Cc1c(-c2ccco2)nc2c(c(-c3ccccc3)nn2-c2ccccc2)c1-c1ccc(O)cc1`: the inhibition of growth at 10 µM in the test on SR is 81%.

As for `Cc1ccc(-c2nc3c(c(-c4ccccc4)nn3-c3ccccc3)c(-c3ccc(O)cc3)c2C#N)cc1`, the Activity result in the test on RS4-11 [11] is “Dde”. Besides, the outcome in the test on RS4-11 [12] and with RS4-11 [13] was Active.

Values taken from ChEMBL document CHEMBL5131391, “One-pot three-component synthesis of novel pyrazolo[3,4-b]pyridines as potent antileukemic agents” (Eur J Med Chem, 2022).
